Measured values taken from patent US9682988B2, “Solid salt form of α-6-mPEG6-O-hydroxycodone as opioid agonists and uses thereof” (Nektar Therapeutics, priority 2012, dated 2017).

What was measured:
Type in all cases: physicochemical
[1] = Water vapor sorption; conditions: phosphate salt
Protocol: Moisture sorption/desorption data were collected on a VTI SGA-1 00 Vapor Sorption Analyzer. Sorption and desorption data were collected over a range of 5% to 95% relative humidity (RH) at 10% RH intervals under a nitrogen purge. Samples were not dried prior to analysis. Equilibrium criteria used for analysis were less than 0.0100% weight change in 5 minutes, with a maximum equilibration time of 3 hours if the weight criterion was not met. Data were not corrected for the initial moisture content of the samples. NaCl and PVP were used as calibration standards.

[2] = Particle size distribution (Malvern Mastersizer); conditions: ethyl acetate dispersant; phosphate salt
Protocol: (§1) 27.22 g of freebase alpha-6-mPEG6-O-hydroxycodone was added to a 250 mL jacketed flask. The flask was equipped with a nitrogen inlet, mechanical stirrer and temperature probe connected to a digital read-out. 163 mL of tBME (methyl tert-butyl ether):heptane (5:1 vol:vol) was added to make a homogeneous solution at 15° C. Aqueous phosphoric acid (3103 μL of 85+%) was added over 1 hr at 10 minutes intervals. During the first addition, the initially formed solids were long strings and agitation helped to transform fine solid in matter of seconds. Exothermic temperature spikes occurred; the range of these increases was 8-10° C. observed during the initial 5 added portions. During the 6th and 7th added portion the temperature spike was reduced substantially to increments of a Celsius degree. After 2 hours the slurry was filtered. The filtration rate was instantaneous with no solvent retention. The wet cake was washed with 90 mL tBME (2×45 mL) and set to dry at ambient temperature overnight inside a vacuum oven. The isolated 30.57 g of white solid (96.5% isolated yield) was filtered. The solid after delumping with spatula was free flowing. The % LOD of the wet cake was at 43.2%. HPLC purity was at 98.6%. Bulk density was 0.3276 g/mL, tap density was 0.3931 g/mL, and the Hausner ratio was 1.20. XRPD conformed to the salt prepared according to Example 3. FIG. 16 depicts various XRPD scans for the salt prepared according to Example 7 on a 30 g, 100 g, and 520 g scale and a salt prepared according to Example 3 on a 100 g scale. XRPD patterns were obtained using a Bruker D8 Advance equipped with a Cu Kα radiation source (1.54 Å), a 9-position sample holder and a LYNXEYE Super Speed Detector. Typically, the duration of each scan was 180 seconds and the 2θ range was 4 to 40°. Samples were placed on zero-background, silicon plate holders. DSC data were collected using a TA Instruments Q10 DSC. Typically, samples (˜2 mg) were placed in hermetic alodined aluminum sample pans and scanned from 30 to 350° C. at a rate of 10° C./min under a nitrogen purge of 50 mL/min. A Malvern Hydro 2000 SM (A) Mastersizer was used for particle size analysis data using a generic method. Ethyl acetate was used as the dispersant, with a pump speed of 2000 rpm, obstruction of 10-15%. The addition style included direct addition of the solid to the dispersant until desired obstruction is achieved. The number of measurements was a minimum of two. For PSD analysis, a sample was taken from the bulk of the solid. FIGS. 13, 14, and 15 are plots of the PSD analysis for the 30 g, 100 g, and 520 g lots respectively.

[3] = Bulk and tap density of the solid salt
Protocol: as §1

[4] = Description of the isolated solid (hygroscopicity); conditions: after drying under vacuum at ambient temperature
Protocol: A solution of α-6-mPEG6-O-hydroxycodone was prepared in a mixture of methanol and tert-butyl methyl ether (2:1, 2 volumes) at 30° C. A solution of phosphoric acid (85% aqueous, 1.05 eq) was prepared in a mixture of methanol and tert-butyl methyl ether (2:1, 1.2 volumes) at 20° C. The solutions were combined, maintaining a temperature of 30-50° C., resulting in the formation of dissolved α-6-mPEG6-O-hydroxycodone phosphate. This salt solution was adjusted to 40° C., and gradually transferred over the course of 1-3 hours into a solution of heptanes and tert-butyl methyl ether (4:1, 14 volumes) maintained at 45° C. During the transfer, α-6-mPEG6-O-hydroxycodone phosphate precipitated from the combined streams. The resulting slurry was cooled to 20° C. and agitation was ceased, permitting the solids to settle. The supernate was decanted, and heptanes (6 volumes) were added to the solids. The solids were slurried for at least one hour at 30° C., after which the slurry was cooled to 20° C. Again agitation was ceased, the solids were allowed to settle, and the supernate was decanted. Fresh heptanes were added to the solids, which were again slurried for at least one hour at 30° C. The slurry was cooled to 20° C., filtered, and washed with fresh heptanes (2 volumes). […] The solid form prepared according to this Example has a melting point in the range of about 175-177° C. […]

[5] = listed as Alpha 6-mPEG6-O-Hydroxycodone Phosphate Salt

Structure (SMILES) | Water Vapor Sorption (gain between 0-50% RH) [1] | Particle Size Distribution DV[10] [2] | Particle Size Distribution DV[50] [2] | Particle Size Distribution DV[90] [2] | Bulk Density ([3]; phosphate salt) | Hausner ratio ([3]; phosphate salt) | Tap Density ([3]; phosphate salt) | nature of the isolated solid [4] | Bulk Density [3, 5] | Hausner ratio [3, 5] | Tap Density [3, 5]
COCCOCCOCCOCCOCCOCCO[C@H]1CC[C@@]2(O)[C@H]3Cc4ccc(OC)c5c4[C@@]2(CCN3C)[C@H]1O5.O=P(O)(O)O [30 g Lot, α-6-mPEG6-O-hydroxycodone phosphate salt] | 4.2% | DV[10] = 7 μm | DV[50] = 47 μm | DV[90] = 92 μm | 0.33 g/mL | 1.18 | 0.39 g/mL |  |  |  | 
COCCOCCOCCOCCOCCOCCO[C@H]1CC[C@@]2(O)[C@H]3Cc4ccc(OC)c5c4[C@@]2(CCN3C)[C@H]1O5.O=P(O)(O)O [100 g Lot, α-6-mPEG6-O-hydroxycodone phosphate salt] | 4.1% | DV[10] = 9 μm | DV[50] = 53 μm | DV[90] = 109 μm | 0.37 g/mL | 1.30 | 0.48 g/mL |  |  |  | 
COCCOCCOCCOCCOCCOCCO[C@H]1CC[C@@]2(O)[C@H]3Cc4ccc(OC)c5c4[C@@]2(CCN3C)[C@H]1O5.O=P(O)(O)O [520 g Lot, α-6-mPEG6-O-hydroxycodone phosphate salt] | 4.2% | DV[10] = 7 μm | DV[50] = 47 μm | DV[90] = 93 μm | 0.39 g/mL | 1.25 | 0.49 g/mL |  |  |  | 
COCCOCCOCCOCCOCCOCCO[C@H]1CC[C@@]2(O)[C@H]3Cc4ccc(OC)c5c4[C@@]2(CCN3C)[C@H]1O5.O=C(O)C(O)C(O)C(=O)O [α-6-mPEG6-O-hydroxycodone D-tartrate] |  |  |  |  |  |  |  | deliquescent white powder |  |  | 
COCCOCCOCCOCCOCCOCCO[C@H]1CC[C@@]2(O)[C@H]3Cc4ccc(OC)c5c4[C@@]2(CCN3C)[C@H]1O5.O=P(O)(O)O [α-6-mPEG6-O-hydroxycodone phosphate] |  |  |  |  |  |  |  | slightly waxy, hygroscopic powder | 0.3276 g/mL | 1.20 | 0.3931 g/mL
